Legend:
hα2B receptor = molecular target: T1, hα2B receptor (Homo sapiens, UniProt P18089); assay: Radioligand binding experiment for hα2B receptor ([3H]-raulwolscine); conditions: membranes of CHO cells expressing human α2B receptor, [3H]raulwolscine 1 nM; for IC50: read-out: hα2B pIC50 (converted)
T1 construct: expressed in transfected cells
T1 sequence (P18089 1-450): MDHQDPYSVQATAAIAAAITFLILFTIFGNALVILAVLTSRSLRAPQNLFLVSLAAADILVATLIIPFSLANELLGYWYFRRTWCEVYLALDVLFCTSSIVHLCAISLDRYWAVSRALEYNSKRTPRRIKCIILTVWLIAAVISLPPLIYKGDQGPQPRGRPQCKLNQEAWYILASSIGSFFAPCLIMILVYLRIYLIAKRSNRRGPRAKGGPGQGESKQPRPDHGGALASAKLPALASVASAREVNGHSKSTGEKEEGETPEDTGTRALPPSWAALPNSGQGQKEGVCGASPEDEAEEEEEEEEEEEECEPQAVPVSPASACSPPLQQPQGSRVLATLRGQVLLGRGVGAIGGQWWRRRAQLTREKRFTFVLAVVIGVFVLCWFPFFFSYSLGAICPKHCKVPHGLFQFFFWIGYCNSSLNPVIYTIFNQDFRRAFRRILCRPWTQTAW
Protocol: (§1) The interaction of the compounds of Formula (I) with hα2-receptors and h5-HT-transporters was assessed in in vitro radioligand binding experiments. In general, a low concentration of a radioligand with a high binding affinity for a particular receptor or transporter is incubated with a sample of a tissue preparation enriched in a particular receptor or transporter or with a preparation of cells expressing cloned human receptors in a buffered medium. During the incubation, the radioligand binds to the receptor or transporter. When equilibrium of binding is reached, the receptor bound radioactivity is separated from the non-bound radioactivity, and the receptor- or transporter-bound activity is counted. The interaction of the test compounds with the receptor is assessed in competition binding experiments. Various concentrations of the test compound are added to the incubation mixture containing the receptor- or transporter preparation and the radioligand. The test compound in proportion to its binding affinity and its concentration inhibits binding of the radioligand. The radioligand used for hα2A, hα2B and hα2C receptor binding was [^3H]-raulwolscine and for the h5-HT transporter was [^3H]paroxetine.
(§2) CHO cells, stabile transfected with human adrenergic-α2A-, -α2B or α2C receptor cDNA, were cultured in Dulbecco's Modified Eagle's Medium (DMEM)/Nutrient mixture Ham's F12 (ratio 1:1)(Gibco, Gent-Belgium) supplemented with 10% heat inactivated fetal calf serum (Life Technologies, Merelbeke-Belgium) and antibiotics (100 IU/ml penicillin G, 100 μg/ml streptomycin sulphate, 110 μg/ml pyruvic acid and 100 μg/ml L-glutamine). One day before collection, cells were induced with 5 mM sodiumbutyrate. Upon 80–90% of confluence, cells were scraped in phosphate buffered saline without Ca^2+ and Mg^2+ and collected by centrifugation at 1500×g for 10 min. The cells were homogenised in Tris-HCl 50 mM using an Ultraturrax homogenizer and centrifuged for 10 min at 23,500×g. The pellet was washed once by resuspension and rehomogenization and the final pellet was resuspended in Tris-HCl, divided in 1 ml aliquots and stored at −70° C.
(§3) Membranes were thawed and re-homogenized in incubation buffer (glycylglycine 25 mM, pH 8.0). […] Filters were rinsed extensively with ice-cold rinsing buffer (Tris-HCl 50 mM pH 7.4). Filter-bound radioactivity was determined by scintillation counting in a Topcount (Packard, Meriden, Conn.) and results were expressed as counts per minute (cpm). Non-specific binding was determined in the presence of 1 μM oxymetazoline for hα2A- and hα2B receptors and 1 μM spiroxatrine for hα2C receptors.
(§4) Data from assays in the presence of compound were calculated as a percentage of total binding measured in the absence of test compound. Inhibition curves, plotting percent of total binding versus the log value of the concentration of the test compound, were automatically generated, and sigmoidal inhibition curves were fitted using non-linear regression. The pIC50 values of test compounds were derived from individual curves.

hα2A receptor = molecular target: T2, hα2A receptor (Homo sapiens, UniProt P08913); assay: Radioligand binding experiment for hα2A receptor ([3H]-raulwolscine); conditions: membranes of CHO cells expressing human α2A receptor, [3H]raulwolscine 1 nM; for IC50: read-out: hα2A pIC50 (converted)
T2 construct: expressed in transfected cells
T2 sequence (P08913 1-465): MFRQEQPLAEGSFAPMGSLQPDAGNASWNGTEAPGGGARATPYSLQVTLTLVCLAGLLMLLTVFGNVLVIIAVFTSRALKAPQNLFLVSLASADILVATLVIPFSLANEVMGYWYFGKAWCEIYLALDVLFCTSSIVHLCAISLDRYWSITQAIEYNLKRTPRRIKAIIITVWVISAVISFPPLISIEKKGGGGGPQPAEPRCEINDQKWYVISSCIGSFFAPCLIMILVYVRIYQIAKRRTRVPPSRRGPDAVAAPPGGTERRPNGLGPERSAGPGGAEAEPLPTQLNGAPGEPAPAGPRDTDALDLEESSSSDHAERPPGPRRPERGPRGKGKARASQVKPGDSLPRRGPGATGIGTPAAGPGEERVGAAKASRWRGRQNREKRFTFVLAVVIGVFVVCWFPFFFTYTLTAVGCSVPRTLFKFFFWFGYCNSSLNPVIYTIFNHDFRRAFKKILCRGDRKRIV
Protocol: as §1, §2, §3, §4

hα2C receptor = molecular target: T3, hα2C receptor (Homo sapiens, UniProt P18825); assay: Radioligand binding experiment for hα2C receptor ([3H]-raulwolscine); conditions: membranes of CHO cells expressing human α2C receptor, [3H]raulwolscine 1 nM; for IC50: read-out: hα2C pIC50 (converted)
T3 construct: expressed in transfected cells
T3 sequence (P18825 1-462): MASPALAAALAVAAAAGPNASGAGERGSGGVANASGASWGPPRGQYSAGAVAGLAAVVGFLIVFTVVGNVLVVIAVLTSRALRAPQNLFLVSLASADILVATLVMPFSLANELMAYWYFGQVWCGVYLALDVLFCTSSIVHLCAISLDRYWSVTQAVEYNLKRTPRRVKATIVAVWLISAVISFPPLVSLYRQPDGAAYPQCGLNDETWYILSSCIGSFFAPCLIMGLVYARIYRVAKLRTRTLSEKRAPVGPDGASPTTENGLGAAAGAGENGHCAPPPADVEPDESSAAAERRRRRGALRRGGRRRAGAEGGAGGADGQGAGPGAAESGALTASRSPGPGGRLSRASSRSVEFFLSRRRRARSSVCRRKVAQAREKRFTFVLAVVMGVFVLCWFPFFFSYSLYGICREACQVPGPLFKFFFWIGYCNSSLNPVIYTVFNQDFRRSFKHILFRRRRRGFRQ
Protocol: as §1, §2, §3, §4

h5-HT transporter = molecular target: T4, h5-HT transporter (Homo sapiens, UniProt P31645); assay: Radioligand binding experiment for 5-HT transporter ([3H]paroxetine, human platelet membranes); conditions: human platelet membranes, [3H]paroxetine 0.5 nM; for IC50: read-out: 5HTT pIC50 (converted)
T4 construct: Human platelet membranes (Oceanix Biosciences Corporation, Hanover, Md., USA) were thawed; tissue Oceanix Biosciences Corporation, Hanover, Md., USA; host or cells: human platelet membranes
T4 sequence (P31645 whole entry): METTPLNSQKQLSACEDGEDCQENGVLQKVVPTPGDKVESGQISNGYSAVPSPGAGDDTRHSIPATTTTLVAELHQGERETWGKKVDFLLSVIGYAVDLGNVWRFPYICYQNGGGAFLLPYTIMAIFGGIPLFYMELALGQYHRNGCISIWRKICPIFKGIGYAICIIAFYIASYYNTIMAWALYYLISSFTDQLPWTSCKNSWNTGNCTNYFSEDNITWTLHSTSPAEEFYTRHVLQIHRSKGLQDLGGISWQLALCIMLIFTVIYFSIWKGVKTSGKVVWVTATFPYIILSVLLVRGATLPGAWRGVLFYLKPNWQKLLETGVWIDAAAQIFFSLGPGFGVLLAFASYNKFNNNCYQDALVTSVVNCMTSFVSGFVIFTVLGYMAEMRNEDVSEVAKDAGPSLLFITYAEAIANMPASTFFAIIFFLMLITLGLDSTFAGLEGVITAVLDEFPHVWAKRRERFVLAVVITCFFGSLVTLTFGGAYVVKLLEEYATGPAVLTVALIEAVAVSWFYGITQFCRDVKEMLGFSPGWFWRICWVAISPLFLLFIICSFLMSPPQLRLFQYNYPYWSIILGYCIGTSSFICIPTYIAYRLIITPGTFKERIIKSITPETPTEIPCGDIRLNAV
Protocol: as §1
Human platelet membranes (Oceanix Biosciences Corporation, Hanover, Md., USA) were thawed, diluted in buffer (Tris-HCl 50 mM, 120 mM NaCl and 5 mM KCl) and quickly (max 3 s) homogenised with an Ultraturrax homogenizer. […] Filters were rinsed extensively with ice-cold buffer and radioactivity on the filters was counted in a Topcount liquid scintillation counter (Packard, Meriden, Conn.). Data were expressed as cpm. Imipramine (at 1 μM final concentration) was used to determine the non-specific binding.
as §4

| IC50 (hα2B receptor) [nM] | IC50 (hα2A receptor) [nM] | IC50 (hα2C receptor) [nM] | IC50 (h5-HT transporter) [nM] | SMILES | hα2B pIC50 (hα2B receptor) | hα2A pIC50 (hα2A receptor) | hα2C pIC50 (hα2C receptor) | 5HTT pIC50 (h5-HT transporter) |
| --- | --- | --- | --- | --- | --- | --- | --- | --- |
| 7.41 | 3.8 | 1.35 | 126 | CSc1cc2c(cc1F)C1=NOC(CN3CCN(CC(C)=Cc4ccccc4)CC3)C1CO2 (stereo not drawn) [Compound 244] | – | – | – | – |
| 89.1 | 72.4 | 25.1 | 1.58 | COc1cc2c(cc1OC)C1=NOC(CN3CCN(Cc4ccc5cc(F)ccc5c4)CC3)C1CO2 (stereo not drawn) [Compound 76] | – | – | – | – |
| 407 | 759 | 724 | 871 | COc1cc2c(cc1OC)C1=NOC(CN3CCN(Cc4ccoc4)CC3)C1CO2 (stereo not drawn) [Compound 296] | – | – | – | – |
| 25.1 | 77.6 | 23.4 | 24 | COc1cc2c(cc1OC)C1=NOC(CN3CCN(CC(Br)=Cc4ccccc4)CC3)C1CO2 (stereo not drawn) [Compound 143] | – | – | – | – |
| 14.1 | 7.59 | 43.7 | 66.1 | COc1ccc2c(c1)CCC1C2=NOC1CN1CCN(CC=Cc2ccccc2)CC1 (stereo not drawn) [Comp 220] | – | – | – | – |
| 447 | 91.2 | 380 | 8.13 | COc1ccc2c(c1)OCC1C2=NOC1CCN1CCN(Cc2ccc3ccccc3c2)CC1 (stereo not drawn) [Compound 280] | – | – | – | – |
| 3.63 | 14.5 | 8.13 | – | COc1cc2c(cc1OC)C1=NOC(CN3CCN(CC(C)=Cc4ccc(F)cc4)CC3)C1CO2 (stereo not drawn) [Compound 196] | – | – | – | – |
| 1 | 1.2 | 1.66 | – | COc1cc2c(cc1OC)C1=NOC(CN3CCN(CC(C)=Cc4cc(F)ccc4F)CC3)C1CO2 (stereo not drawn) [Compound 199] | – | – | – | – |

The next lines start with the compound.

| SMILES | IC50 (hα2B receptor) [nM] | IC50 (hα2A receptor) [nM] | IC50 (hα2C receptor) [nM] | IC50 (h5-HT transporter) [nM] | hα2B pIC50 (hα2B receptor) | hα2A pIC50 (hα2A receptor) | hα2C pIC50 (hα2C receptor) | 5HTT pIC50 (h5-HT transporter) |
| --- | --- | --- | --- | --- | --- | --- | --- | --- |
| COc1cc2c(cc1O)OCC1C2=NOC1CN1CCN(C/C(C)=C/c2ccccc2)CC1 (stereo not drawn) [Compound 3] | 2.57 | 2.34 | 1.86 | 16.2 | – | – | – | – |
| COc1cc2c(cc1OC)C1=NOC(CN3CCN(CC(C)=Cc4cccc5ccccc45)CC3)C1CO2 (stereo not drawn) [Compound 157] | 52.5 | 13.5 | 74.1 | – | – | – | – | – |
| COc1cc2c(cc1OC)C1=NOC(CN3CCN(CCc4ccc5c(c4)OCO5)CC3)C1CO2 (stereo not drawn) [Compound 47] | 447 | 661 | 851 | 50.1 | – | – | – | – |
| COc1cc2c(cc1OC)C1=NOC(CN3CCN(CC(C)Nc4ccccc4)CC3)C1CO2 (stereo not drawn) [Compound 26] | 102 | 525 | 245 | 676 | – | – | – | – |
| CC(=O)Oc1ccc2c(c1)OCC1C2=NOC1CN1CCN(CC=Cc2ccccc2)CC1 (stereo not drawn) [Compound 233] | – | – | – | – | 8.20 | 8.33 | 7.94 | 7.36 |
| COc1cc2c(cc1Cl)C1=NOC(CN3CCN(CC(C)=Cc4ccccc4)CC3)C1CO2 (stereo not drawn) [Compound 246] | – | – | – | – | 7.90 | 7.55 | 7.86 | 7.50 |
| COc1cc2c(cc1OC)C1=NOC(CN3CCN(Cc4ccc5c(N)cccc5c4)CC3)C1CO2 (stereo not drawn) [Compound 304] | 58.9 | 19.5 | 64.6 | 38.9 | – | – | – | – |
| CCC(=Cc1ccccc1)CN1CCN(CC2ON=C3c4cc(OC)c(OC)cc4OCC32)CC1 (stereo not drawn) [Compound 154] | 40.7 | 53.7 | 87.1 | 89.1 | – | – | – | – |
| COc1cc2c(cc1OC)C1=NOC(CN3CCN(Cc4cccc(Cl)c4)CC3)C1CO2 (stereo not drawn) [Compound 14] | 646 | 427 | 263 | 363 | – | – | – | – |
| C(=Cc1ccccc1)CN1CCN(CC2ON=C3c4cc5c(cc4OCC32)OCO5)CC1 (stereo not drawn) [Compound 278] | 7.24 | 3.24 | 6.92 | 245 | – | – | – | – |
| Oc1ccc2c(c1)OCC1C2=NOC1CN1CCN(Cc2ccc3ccccc3c2)CC1 (stereo not drawn) [Compound 268] | 5.5 | 1 | 8.91 | 5.75 | – | – | – | – |
| COc1ccccc1C=CCN1CCN(CC2ON=C3c4cc(OC)c(OC)cc4OCC32)CC1 (stereo not drawn) [Compound 41] | 5.01 | 15.8 | 12.6 | – | – | – | – | – |
| COc1cc2c(cc1OC)C1=NOC(CN3CCN(CCOc4ccc(F)cc4)CC3)C1CO2 (stereo not drawn) [Compound 48] | 5.75 | 13.2 | 4.37 | 126 | – | – | – | – |
| COc1cc2c(cc1OC)C1=NOC(CN3CCN(Cc4ccccc4)CC3)C1CO2 (stereo not drawn) [Compound 31] | 631 | 794 | 1000 | 501 | – | – | – | – |
| COc1cc2c(cc1F)C1=NOC(CN3CCN(CC(C)=Cc4ccccc4)CC3)C1CO2 (stereo not drawn) [Compound 241] | 7.41 | 16.6 | 6.31 | – | – | – | – | – |
| COc1cc2c(cc1OC)C1=NOC(CN3CCN(CC(C)=Cc4cccc(F)c4)CC3)C1CO2 (stereo not drawn) [Compound 195] | 1.58 | 4.57 | 2.09 | – | – | – | – | – |
| COc1ccccc1C=C(C)CN1CCN(CC2ON=C3c4cc(OC)c(OC)cc4OCC32)CC1 (stereo not drawn) [Compound 201] | 3.24 | 4.37 | 4.57 | – | – | – | – | – |
| COc1cc2c(cc1OCCN(C)C)OCC1C2=NOC1CN1CCN(C/C(C)=C/c2ccccc2)CC1 (single isomer, unassigned) [Compound 341] | – | 3.63 | 1.23 | 2.19 | – | – | – | – |

Reference: patent US7169786B2, “Isoxazoline derivatives as anti-depressants” (priority 2001, dated 2007)
